Measurements taken from publication PMC6143625, “A high throughput screen for next-generation leads targeting malaria parasite transmission” (Nature Communications, 2018).
Like-named read-outs stand apart in the source and are kept apart here.

Assays:
[1] = tested on: P. falciparum 3D7 asexual blood stages; assay: Whole-cell time extended asexual growth assay (pLDH); format: cell-based; details: Plasmodium falciparum, 72 h; for IC50: dose response retest, read-out: IC50 (µM) Asex stages; for inhibition at 2 µM: primary screen, read-out: %Inh Asex stages @2uM
Description: Asexual activity was assayed via Plasmodium lactate dehydrogenase activity (pLDH), a surrogate of asexual parasite growth. […] 2 µM artesunate and DMSO were used as the positive and negative controls, respectively. […] After plate mixing, NBT reduction was measured by absorbance at 650 nm using Envision (Perkin Elmer).

[2] = tested on: HepG2 human cells; design: method as in http://dx.doi.org/10.6019/CHEMBL3507680; details: ref http://dx.doi.org/10.6019/CHEMBL3507680; cited from earlier work
[3] = tested on: P. falciparum stage V female gametocytes (female gamete formation); assay: P. falciparum dual gamete formation assay (Pf DGFA), female readout (Pfs25 expression), 48 h carry-over format; format: cell-based, Plasmodium falciparum NF54; details: Plasmodium falciparum; for IC50: read-out: Female IC50; for inhibition at 2 µM: primary screen, single replicate
[4] = tested on: P. falciparum stage V male gametocytes (male gamete formation); assay: P. falciparum dual gamete formation assay (Pf DGFA), male readout (exflagellation), 48 h carry-over format; format: cell-based, Plasmodium falciparum NF54; details: Plasmodium falciparum; for IC50: read-out: Male IC50; for inhibition at 2 µM: primary screen, single replicate
[5] = 48 h, dose response retest of primary hits, 48 h incubation

SMILES | IC50 [1] [µM] | inhibition at 2 µM [1] [%] | %Inh HepG2 @10uM [2] [%] | IC50 [3, 5] [µM] | inhibition at 2 µM ([3]; 48 h incubation) [%] | IC50 [4, 5] [µM] | inhibition at 2 µM ([4]; 48 h incubation) [%] | IC50 ([3]; SAR, Fig. 7) [µM] | IC50 ([4]; SAR, Fig. 6 and Fig. 7) [µM]
COc1cc(CNCC(O)c2ccc(F)c(F)c2)cc2c1OCO2 (stereo not drawn) [DDD00408586] | 3 | 56.7 | 29.87 | – | – | – | – | – | –
CCCc1nc2c(c(C)c(C)n2CCN(C)C)c(N)c1CC [DDD01026700] | 5.25 | 39.3 | 3.64 | – | – | – | – | – | –
CCc1c(-c2ccccc2)nc2c(c(C)c(C)n2CCN(C)C)c1N [DDD01026714] | 3.31 | 48.1 | 15.22 | – | – | – | – | – | –
Cc1c(-c2ccccc2)nc2c(c(C)c(C)n2CCN(C)C)c1N [DDD01026725] | 4.49 | 46.1 | 13.65 | – | – | – | – | – | –
CC(C)n1ncc2c1NC(=O)CC21C(=O)Nc2c(Cl)ccc(Cl)c21 (stereo not drawn) [DDD01027128] | 2.18 | 96.3 | -12.20 | – | – | – | – | – | –
O=C(CN1CC(c2nc(C3CC3)no2)C1)N1CCOCC1.O=C(O)C(=O)O [DDD01027902] | – | – | -17.5 | 5.81 | < 30 | 1.18 | 52.5 | – | –
CC(C)Nc1nc2c(c(NC3CC3)n1)CCN(C1CCOCC1)CC2 [DDD01029612] | 3.54 | 33.7 | -3.76 | – | – | – | – | – | –
CC(C)Nc1nc2c(c(NC3CC3)n1)CN(C(=O)Cc1ccsc1)CC2 [DDD01029980] | 2.5 | 33.2 | 3.26 | – | – | – | – | – | –
CC(C)Nc1nc2c(c(NC3CC3)n1)CN(C(=O)c1ccsc1)CC2 [DDD01030030] | 1.15 | 58.7 | -17.20 | – | – | – | – | – | –
COc1ccc(CN2CCc3c(CNC(=O)CC#N)nn(C)c3C2)cc1.O=C(O)C(F)(F)F.O=C(O)C(F)(F)F [DDD01030619] | – | – | -1.4 | > 10 | < 30 | 1.34 | 59.5 | – | –
c1cncc(-c2ccc3c(c2)CCC32CCNCC2)c1 [DDD01031368] | 3.86 | 38.8 | 17.78 | – | – | – | – | – | –
Cc1nnc(N2CC[C@@H](OCC3CC3)[C@@H](Cc3ccccc3)C2)s1.O=C(O)C(F)(F)F [DDD01032950] | 2.17 | 45.4 | -7.86 | – | – | – | – | – | –
CN(Cc1ccco1)C[C@H]1OC[C@@H]2CCN(Cc3ccccn3)C[C@@H]21.O=C(O)C(F)(F)F.O=C(O)C(F)(F)F.O=C(O)C(F)(F)F [DDD01033585] | 2.59 | 41 | -8.48 | – | – | – | – | – | –
COc1ccc(N2CCCC3(C2)CN(c2nncs2)CCO3)cc1 (stereo not drawn) [DDD01034473] | 1.48 | 87.8 | 1.09 | – | – | – | – | – | –
COc1cccc(C2SCC(=O)Nc3ccsc32)c1OC (stereo not drawn) [DDD01034924] | 5.19 | 33.1 | 1.70 | – | – | – | – | – | –
Cc1[nH]/c(=N\C(=O)c2csc(NC3CCCC3)n2)sc1C [DDD01035522] | 5.98 | 32.6 | 31.16 | – | – | – | – | – | –
I.c1ccc(Sc2ccc3c(c2)OCO3)c(CNC2=NCCN2)c1 [DDD01035544] | 3.12 | 30.4 | -0.79 | – | – | – | – | – | –
CC(C)c1nnc2ccc(N3CCC(C(=O)Nc4nccs4)CC3)nn12 [DDD01036018] | 9.35 | 30.4 | 10.73 | – | – | – | – | – | –
O=C(Nc1cnn(COc2ccc(F)cc2Cl)c1)C1CC1 [DDD01037427] | 3.65 | 46.4 | 9.89 | – | – | – | – | – | –
CCN(CC)c1nc(Nc2cccc(C(C)O)c2)nc2ccccc12 (stereo not drawn) [DDD01037966] | 1.88 | 44.9 | 65.01 | – | – | – | – | – | –
CC(O)c1cccc(Nc2nc(NCCO)c3ccccc3n2)c1 (stereo not drawn) [DDD01037968] | 1.67 | 41.9 | -5.65 | – | – | – | – | – | –

SMILES | IC50 [1] [µM] | inhibition at 2 µM [1] [%] | %Inh HepG2 @10uM [2] [%] | IC50 [3, 5] [µM] | inhibition at 2 µM ([3]; 48 h incubation) [%] | IC50 [4, 5] [µM] | inhibition at 2 µM ([4]; 48 h incubation) [%] | IC50 ([3]; SAR, Fig. 7) [µM] | IC50 ([4]; SAR, Fig. 6 and Fig. 7) [µM]
Oc1ccc(Cl)cc1CNCc1ccccc1Cl [DDD01038243] | 2.29 | 49.1 | -8.63 | – | – | – | – | – | –
Oc1ccc(Cl)cc1CNCc1cccc(C(F)(F)F)c1 [DDD01038245] | 1.69 | 52.7 | -12.90 | – | – | – | – | – | –
Cc1ccccc1CNCc1cc(Cl)ccc1O [DDD01038246] | 1.52 | 53.9 | -11.50 | – | – | – | – | – | –
COc1cccc(CNCc2cccc(Cl)c2)c1O [DDD01038248] | 3.16 | 33.1 | -4.96 | – | – | – | – | – | –
COc1cccc(CNCc2ccc(F)c(Cl)c2)c1O [DDD01038250] | 1.59 | 68.7 | 27.04 | – | – | – | – | – | –
COCCCNC(=O)c1cc(C(C)C)nc(N2CCCCCC2)n1 [DDD01038653] | 6.14 | 40.6 | -8.22 | – | – | – | – | – | –
Cc1nn(C)c(C)c1CCn1cncc1-c1ccc2c(c1)CC(C)N2C.Cl (stereo not drawn) [DDD01056530] | 3.8 | 51 | 4.43 | – | – | – | – | – | –
Cc1cccc(C)c1Nc1noc2c1CN(C(=O)c1ccnn1C)CC2 [DDD01056796] | 1.46 | 68.6 | 69.80 | – | – | – | – | – | –
Cc1cccc(C)c1Nc1noc2c1CN(C(=O)c1cn(C)cn1)CC2 [DDD01056797] | 1.55 | 81.2 | 75.15 | – | – | – | – | – | –
Cc1cccc(C)c1Nc1noc2c1CN(C(=O)c1ccn(C)n1)CC2 [DDD01057030] | 2 | 47.3 | 46.43 | – | – | – | – | – | –
CCCNc1cc(-c2c[nH]nc2C2CCN(C(=O)C3CCC3)C2)ccn1 (stereo not drawn) [DDD01057089] | 1.85 | 43.4 | 96.64 | – | – | – | – | – | –
Cl.NC1CCc2nc(-c3cccnc3)nc(Nc3ccc(F)cc3)c2C1 (stereo not drawn) [DDD01057099] | 1.37 | 68.5 | 3.41 | – | – | – | – | – | –
CC(C)Nc1cc(-c2c[nH]nc2C2CCN(C(=O)C3CC3)C2)ccn1 (stereo not drawn) [DDD01057305] | 5.06 | 30.6 | 96.71 | – | – | – | – | – | –
CC(C)CNc1cc(-c2c[nH]nc2C2CCN(C(=O)C3CC3)C2)ccn1 (stereo not drawn) [DDD01057306] | 3.78 | 35.1 | 95.13 | – | – | – | – | – | –
CC(C)Nc1cc(-c2c[nH]nc2C2CCN(C(=O)C3CCC3)C2)ccn1 (stereo not drawn) [DDD01057307] | 2.39 | 36.2 | 95.83 | – | – | – | – | – | –
COc1ccc(CNC(Cc2ccsc2)c2ccc(C)cn2)c(OC)c1 (stereo not drawn) [DDD01058868] | – | – | 85.33 | 5.3 | 30.8 | > 10 | < 30 | – | –
Cc1cccnc1CN1CC[C@H](Oc2cccc(F)c2)[C@@](C)(O)C1 [DDD01060871] | – | – | -0.828 | 6.07 | 32.8 | > 10 | < 30 | – | –
CC(NCC1CCN(CCO)CC1)c1ccc(C(F)(F)F)cc1 (stereo not drawn) [DDD01073719] | – | – | 14.02 | > 10 | < 30 | 7.83 | 34.8 | – | –
O=C(C1CC2(CCNCC2)CN1)N1CCN(c2cccc(Cl)c2Cl)CC1 (stereo not drawn) [DDD01243908] | – | – | -1.58 | 4.79 | < 30 | 4.28 | 65.7 | – | –
COc1ccc(NC(=O)c2ccc(-n3ncc(C#N)c3N)cc2)cn1 [DDD01303472] | – | – | 3.50 | – | – | – | – | – | –
O=C(NCC1(O)CCOc2ccccc21)c1ccc(Br)s1 (stereo not drawn) [OJF-034] | – | – | – | – | – | – | – | > 25 | > 25
